Assay [1] concerns the target Recombinant human PKC-theta (His-tagged 362-706) (Homo sapiens (Human), UniProt Q04759). Nature of the assay: PKC-theta inhibition assay (HTRF KinEASE kit). Format: biochemical. To be noted: ATP 6.5 μM. As to the method: (§1) PKC-theta and PKC-delta biochemical activities were measured using the PKC-theta HTRF KinEASEkit kit, according to manufacturer's instructions (Cisbio, catalogue number 61ST1PEJ). Briefly, the kinase buffer component of the kit was supplemented with 10 mM MgCl2, 1 mM DTT and 0.1% Tween 20. For the PKC-theta assay, STK substrate and ATP were added to provide a final assay concentration of 525 nM and 6.5 μM, respectively. For the PKC-delta assay, STK substrate and ATP were added to provide a final assay concentration of 243 nM and 5.7 μM, respectively. The streptavidin_XL665 and STK antibody-cryptate detection reagents were mixed according to the manufacturer's instructions. Test compounds were diluted in DMSO in a series of 10 semi-log step doses; 10 nL of each compound dose were dispensed in 384 well plates. Recombinant human PKC-theta (His-tagged 362-706) or PKC-delta (His-tagged 345-676) was diluted into kinase buffer to provide a final assay concentration of 10 ng/ml and added to the test compound for 30 minutes on ice. The reaction was started by addition of the substrate and ATP and incubated at 25° C. for 30 minutes or 20 minutes for the PKC-theta and PKC-delta assays, respectively. The detection reagents were added, and the plate was incubated in the dark for 2 hours. Fluorescence was measured on an Envision 2103 plate reader with optical setup for […] in the HTRF mode. The ratio of acceptor and donor emission signals was calculated for each well. Percent inhibition values were calculated from the HTRF ratios at different doses and fitted to a 4-parameter logistic curve to determine IC50 values (see Table 1).
(TR-FRET usually uses a lanthanide donor and a delayed reading to cut background.)

Assay [2] deals with IL-2 secretion by human effector memory T cells (TEM). The experiment in a line: Effector memory T cells IL-2 release assay. Format: cell-based. Particulars: T-cell, human CD4+ TEM cells, CD3/CD28 bead stimulation, 24 h. How it is done: Test compound-mediated inhibition of NFκB signalling in T cells was assessed by quantification of the IL-2 secretion by human effector memory T cells (TEM) upon treatment and stimulation. Human TEM cells were isolated from buffy coats of healthy donors obtained from the French blood bank. First, peripheral blood mononuclear cells (PBMC) were purified from buffy coats diluted 1:1 with DPBS (Gibco, cat #14190-094) by Pancoll (PAN BIOTECH, cat #P04-60500) density gradient centrifugation at 400×g for 20 minutes. TEM cells were further enriched by negative immuno-magnetic cell sorting using a human CD4+ Effector Memory T Cell Isolation Kit (Miltenyi, cat #130-094-125) according to the manufacturer's instructions. Aliquots of 3×10E6 purified TEM cells were kept frozen in Cryo-SFM medium (PromoCell, cat #C-29912) in gas phase nitrogen until used. Cell purity was verified by flow cytometry analysis of 200 000 PFA-fixed cells previously labelled with monoclonal antibodies anti-CD4-PerCP-Cy5.5 (BD Pharmigen, cat #332772), anti-CD8-V500 (BD Biosciences, cat #561617), anti-CD14-Pacific Blue (Biolegend, cat #325616), anti-CD45 RA-FITC (Biolegend, cat #304106) and anti-CCR7-APC (in CD4+ Effector Memory T Cell Isolation Kit, Miltenyi, cat #130-094-125).
TEM cells were resuspended in complete RPMI medium composed of: RPMI 1640 (Gibco, cat #31870-025), 10% heat inactivated fetal bovine serum (Sigma, cat #F7524), 2 mM GlutaMAX (Gibco, cat #35050-038), 1 mM sodium pyruvate 100× (Gibco, cat #11360-039), 1% MEM non-essential amino acids solution (Gibco, cat #11140-035) and 100 U/mL penicillin, 100 µg/mL streptomycin (Sigma-Aldrich, cat #11074440001). 5,000 cells per well were plated onto flat clear bottom 384 well plates (Corning, cat #3770). 5,000 Dynabeads Human T-Activator CD3/CD28 (Gibco, cat #11132D) were added to each well for cell stimulation. Finally, 10 doses of test compound, originally prepared in DMSO by serial semi-log step dilution, were also added to cells in triplicate wells. Final DMSO concentration in wells was 0.1% in a total volume of 100 µL complete medium. Plates were incubated for 24 h at 37° C. in 5% CO2 atmosphere. After incubation, cell suspensions were centrifuged at 400×g and culture supernatants were recovered and stored at −80° C. Cell viability was assessed by flow cytometry after staining the cells with Fixable Viability Dye eFluor 780 (Invitrogen, cat #65-0865-14). IL-2 levels were determined in cell supernatants using an HTRF human IL-2 detection kit (Cisbio, cat #62HIL02PEH). IL-2 data at the different compound doses were fitted to a 4-parameter logistic curve to determine IC50 values, corresponding to the compound concentration leading to 50% reduction of the maximal IL-2 levels observed in each experiment. Viability data were analysed similarly to exclude cytotoxicity as a cause of IL-2 decrease (see Table 1).

Assay [3] has as its target Recombinant human PKC-delta (His-tagged 345-676) (Homo sapiens (Human), UniProt Q05655). The experiment in a line: PKC-delta inhibition assay (HTRF KinEASE kit), PKC-theta/PKC-delta selectivity. Format: biochemical. Particulars: ratio; for PKC-theta/PKC-delta selectivity: PKC-theta over PKC-delta, HTRF assays; for PKC-theta/PKC-delta selectivity (binned): binned A to G. As to the method:
as §1

The mark [4] stands for this setting: binned A to H, read-out: PKC-theta HTRF pIC50 (binned) (converted).
The mark [5] stands for this setting: read-out: PKC-theta HTRF pIC50 (converted).
Where [6] appears, read: binned A to G, read-out: PKC-theta IL2 pIC50 (binned) (converted).
Where [7] appears, read: read-out: PKC-theta IL2 pIC50 (converted).

The text below walks through data of patent US20240239794A1, “PKC-Theta Modulators” (Exscientia AI Limited, priority 2021, published 2024).

Structures are written as SMILES. Read-outs that look alike come from different tables or passages of the source.

Recombinant human PKC-delta (His-tagged 345-676), sequence (Q05655 345-676): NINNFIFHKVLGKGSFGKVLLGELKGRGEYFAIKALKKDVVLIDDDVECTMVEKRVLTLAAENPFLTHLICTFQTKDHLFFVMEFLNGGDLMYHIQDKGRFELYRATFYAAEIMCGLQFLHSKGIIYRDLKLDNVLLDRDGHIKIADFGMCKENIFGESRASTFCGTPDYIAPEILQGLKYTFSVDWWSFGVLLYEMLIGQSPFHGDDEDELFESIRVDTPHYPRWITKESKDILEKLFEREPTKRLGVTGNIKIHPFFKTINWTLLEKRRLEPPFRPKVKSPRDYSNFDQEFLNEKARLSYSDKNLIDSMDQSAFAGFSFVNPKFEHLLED
Recombinant human PKC-theta (His-tagged 362-706), sequence (Q04759 362-706): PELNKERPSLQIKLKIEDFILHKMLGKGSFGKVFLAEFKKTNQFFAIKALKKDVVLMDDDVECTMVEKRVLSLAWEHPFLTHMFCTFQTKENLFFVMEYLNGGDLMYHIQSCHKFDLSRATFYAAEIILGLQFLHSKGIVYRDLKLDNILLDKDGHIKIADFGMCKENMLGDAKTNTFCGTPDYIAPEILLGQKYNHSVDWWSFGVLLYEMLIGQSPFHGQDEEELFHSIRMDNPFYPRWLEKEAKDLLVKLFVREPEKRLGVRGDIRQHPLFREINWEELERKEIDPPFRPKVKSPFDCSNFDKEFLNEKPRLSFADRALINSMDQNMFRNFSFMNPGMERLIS

As to `CC[C@@]1(O)C(=O)Nc2nccc(-c3nn([C@@H]4CCNC[C@@H]4F)c4ccccc34)c21` (single isomer, unassigned) [Example 83], the IC50 in assay [1] (setting [4]) is 1 to 3.16 nM; in assay [1] (setting [5]) it was 1.58 nM; in assay [2] (setting [6]) it was 31.6 to 100 nM; in assay [2] (setting [7]), 63.1 nM. In assay [3], the PKC-theta/PKC-delta selectivity is reported as 13. In addition, in assay [3], the “PKC-theta/PKC-delta selectivity (binned)” value is “D (D means a ratio of between 10 and 20)”.
As for `CC[C@]1(O)C(=O)Nc2nccc(-c3nn([C@H]4CCNC[C@H]4F)c4ccccc34)c21` (single isomer, unassigned) [Example 84], the IC50 in assay [1] (setting [4]) is 31.6 to 100 nM; in assay [1] (setting [5]), 31.6 nM; in assay [2] (setting [6]), > 1000 nM; in assay [2] (setting [7]), 1260 nM. Also, the PKC-theta/PKC-delta selectivity in assay [3] worked out at 14. In addition, the “PKC-theta/PKC-delta selectivity (binned)” value in assay [3] was “D (D means a ratio of between 10 and 20)”.
Turning to `CC[C@]1(O)C(=O)Nc2nccc(-c3nn([C@@H]4CCNC[C@@H]4F)c4ccccc34)c21` (single isomer, unassigned) [Example 85], the IC50 in assay [1] (setting [4]) is 31.6 to 100 nM; in assay [1] (setting [5]) it was 50.1 nM; in assay [2] (setting [6]), > 1000 nM; in assay [2] (setting [7]), 1260 nM. The PKC-theta/PKC-delta selectivity in assay [3] turned out to be 10. Also, the “PKC-theta/PKC-delta selectivity (binned)” value in assay [3] is “E (E means a ratio of between 5 and 10)”.
On to `CC[C@@]1(OC)C(=O)Nc2nccc(-c3nn(CC4(F)CCNCC4)c4ccccc34)c21` (single isomer, unassigned) [Example 88], for which the IC50 is 3.16 to 10 nM in assay [1] (setting [4]), 3.98 nM in assay [1] (setting [5]), 100 to 316 nM in assay [2] (setting [6]) and 200 nM in assay [2] (setting [7]). Moreover, the PKC-theta/PKC-delta selectivity in assay [3] is recorded as 14. Besides, the “PKC-theta/PKC-delta selectivity (binned)” value in assay [3] is “D (D means a ratio of between 10 and 20)”.
`CC[C@]1(OC)C(=O)Nc2nccc(-c3nn(CC4(F)CCNCC4)c4ccccc34)c21` (single isomer, unassigned) [Example 89]: the IC50 was 1 to 3.16 nM in assay [1] (setting [4]), 2.51 nM in assay [1] (setting [5]), 31.6 to 100 nM in assay [2] (setting [6]) and 79.4 nM in assay [2] (setting [7]). Further, in assay [3], the PKC-theta/PKC-delta selectivity is recorded as 32. Further, the “PKC-theta/PKC-delta selectivity (binned)” value in assay [3] was “B (B means a ratio of between 30 and 50)”.
`CO[C@]1(C)C(=O)Nc2nccc(-c3nn([C@@H]4CCNC[C@@H]4F)c4ccccc34)c21` (single isomer, unassigned) [Example 90]: the IC50 in assay [1] (setting [4]) was ≤ 1 nM; in assay [1] (setting [5]), 1 nM; in assay [2] (setting [6]) it was 10 to 31.6 nM; in assay [2] (setting [7]) it was 15.8 nM. Moreover, in assay [3], the PKC-theta/PKC-delta selectivity was found to be 11. Besides, the “PKC-theta/PKC-delta selectivity (binned)” value in assay [3] was “D (D means a ratio of between 10 and 20)”.
On to `CO[C@]1(C)C(=O)Nc2nccc(-c3nn([C@H]4CCNC[C@H]4F)c4ccccc34)c21` (single isomer, unassigned) [Example 91], for which the IC50 in assay [1] (setting [4]) is 3.16 to 10 nM; in assay [1] (setting [5]) it was 7.94 nM; in assay [2] (setting [6]) it was 100 to 316 nM; in assay [2] (setting [7]), 126 nM. Further, the PKC-theta/PKC-delta selectivity in assay [3] turned out to be 19. For the same compound, the “PKC-theta/PKC-delta selectivity (binned)” value in assay [3] was “D (D means a ratio of between 10 and 20)”.
For the compound `CO[C@@]1(C)C(=O)Nc2nccc(-c3nn([C@@H]4CCNC[C@@H]4F)c4ccccc34)c21` (single isomer, unassigned) [Example 92], the IC50 in assay [1] (setting [4]) is 10 to 31.6 nM; in assay [1] (setting [5]), 12.6 nM; in assay [2] (setting [6]) it was 100 to 316 nM; in assay [2] (setting [7]), 158 nM. The PKC-theta/PKC-delta selectivity in assay [3] turned out to be 15. In addition, the “PKC-theta/PKC-delta selectivity (binned)” value in assay [3] was “D (D means a ratio of between 10 and 20)”.
Consider `CO[C@@]1(C)C(=O)Nc2nccc(-c3nn([C@H]4CCNC[C@H]4F)c4ccccc34)c21` (single isomer, unassigned) [Example 93], for which the IC50 in assay [1] (setting [4]) was 3.16 to 10 nM; in assay [1] (setting [5]) it was 3.98 nM; in assay [2] (setting [6]), 31.6 to 100 nM; in assay [2] (setting [7]) it was 50.1 nM. The PKC-theta/PKC-delta selectivity in assay [3] stood at 10. In assay [3], the “PKC-theta/PKC-delta selectivity (binned)” value was “E (E means a ratio of between 5 and 10)”.
Take `CN[C@@]1(C)C(=O)Nc2nccc(-c3nn(C4(CC#N)CCC4)c4ccccc34)c21` (single isomer, unassigned) [Example 94]: the IC50 was 3.16 to 10 nM in assay [1] (setting [4]), 3.98 nM in assay [1] (setting [5]), 100 to 316 nM in assay [2] (setting [6]) and 126 nM in assay [2] (setting [7]). In addition, in assay [3], the PKC-theta/PKC-delta selectivity was determined as 23. Further, the “PKC-theta/PKC-delta selectivity (binned)” value in assay [3] is “C (C means a ratio of between 20 and 30)”.
As for `CN[C@]1(C)C(=O)Nc2nccc(-c3nn(C4(CC#N)CCC4)c4ccccc34)c21` (single isomer, unassigned) [Example 95], the IC50 is ≤ 1 nM in assay [1] (setting [4]), 0.126 nM in assay [1] (setting [5]), 1 to 3.16 nM in assay [2] (setting [6]) and 1.58 nM in assay [2] (setting [7]). Moreover, the PKC-theta/PKC-delta selectivity in assay [3] was found to be 25. Also, in assay [3], the “PKC-theta/PKC-delta selectivity (binned)” value was “C (C means a ratio of between 20 and 30)”.
`CC[C@@]1(C)C(=O)Nc2nccc(-c3nn([C@@H]4CCNC[C@@H]4F)c4ccc(F)cc34)c21` (single isomer, unassigned) [Example 97]: the IC50 in assay [1] (setting [4]) is 1 to 3.16 nM; in assay [1] (setting [5]) it was 2.51 nM; in assay [2] (setting [6]), 31.6 to 100 nM; in assay [2] (setting [7]), 39.8 nM. Besides, the PKC-theta/PKC-delta selectivity in assay [3] stood at 23. In assay [3], the “PKC-theta/PKC-delta selectivity (binned)” value is “C (C means a ratio of between 20 and 30)”.
As for `CC[C@]1(C)C(=O)Nc2nccc(-c3nn([C@@H]4CCNC[C@@H]4F)c4ccc(F)cc34)c21` (single isomer, unassigned) [Example 98], the IC50 in assay [1] (setting [4]) was 10 to 31.6 nM; in assay [1] (setting [5]), 31.6 nM; in assay [2] (setting [6]), > 1000 nM; in assay [2] (setting [7]) it was 1000 nM. For the same compound, in assay [3], the PKC-theta/PKC-delta selectivity is listed as 57. The “PKC-theta/PKC-delta selectivity (binned)” value in assay [3] was “A (A means a ratio of between 50 and 120)”.
For the compound `CC[C@@]1(C)C(=O)Nc2nccc(-c3nn([C@H]4CCNC[C@H]4F)c4ccc(F)cc34)c21` (single isomer, unassigned) [Example 99], the IC50 in assay [1] (setting [4]) was 31.6 to 100 nM; in assay [1] (setting [5]), 100 nM; in assay [2] (setting [6]) it was 316 to 1000 nM; in assay [2] (setting [7]), 398 nM. Further, the PKC-theta/PKC-delta selectivity in assay [3] is 105. Further, the “PKC-theta/PKC-delta selectivity (binned)” value in assay [3] was “A (A means a ratio of between 50 and 120)”.
